Test system: men with oligoasthenozoospermia
Assay: placebo-controlled randomized study of SG1002 compared to resveratrol in men with oligoasthenozoospermia
Type: in vivo
Conditions: SG1002 500 mg daily, resveratrol 50 mg daily, 54 men
Procedure: There was one placebo-controlled randomized study of SG1002,500 mg daily compared to resveratrol 50 mg daily in 54 men with oligoasthenozoospermia. Men treated with SG1002 had increased sperm concentration, motility and motile forms recovery compared to those treated with placebo. Resveratrol had no effect on any of these parameters. During the study, three men in the SG1002 arm withdrew: one due to excessive flatulence and nausea, one due to “smelly” sweating, and one for convenience.

Oc1ccc(C=Cc2cc(O)cc(O)c2)cc1 [Resveratrol, resveratrol]
no effect: motile forms recovery | sperm concentration | sperm motility

Source: US20170087180A1, “METHODS AND COMPOSITIONS FOR TREATING NITRIC OXIDE DEFICIENCY DISORDERS AND RELATED CONDITIONS” (Sulfagenix, Inc., priority 2014, published 2017)
